Several values for one entry are separate records, joined by “and”; a condition that tells them apart may be missing. Equal values may be shown once.
How the values were obtained:
Format in all cases: in vivo, mouse
[1] = test system: liver mRNA of TNF-α, TIMP-1, Alpha-SMA, MMP-9, collagen type 1, MCP-1; experiment: STAM model mice: liver gene expression analysis (real-time PCR, normalized to 36B4); conditions: vehicle average = 1.0, mean ± SD
Description: (§1) Having observed the improvements in markers that correlate with liver disease in patients treated with PHEN/TPM, animal studies in the STAM model for NAFLD/NASH were preformed to look more specifically at liver morphology and function following treatment with PHEN/TPM. The STAM model was selected because it allows a specific examination of the effects of drug treatment, in this example PHEN/TPM, on non-alcoholic steatohepatitis. The STAM model is a non-genetic animal model of human NASH with features of diabetic background, increased. NAFLD activity score (NAS), perivenular and pericellular fibrosis in Zone 3, and a high incidence of hepatocellular carcinoma (Fujii M. et al., Med. Mel. Morphol., 2013; 46: 141). The model is induced by a combination of chemical and dietary interventions in the mice. In this example, NASH was induced in 30 male mice by a single subcutaneous injection of 200 μg streptozotocin (STZ, Sigma-Aldrich, USA) solution 2 days after birth and feeding with a high fat diet (HFD, 57 kcal % fat, cat#: HFD32, CLEA Japan, Japan) after 4 weeks of age. The mice were treated with either vehicle, PHEN/TPM or Telmisartan.
(§2) Phentermine (PHEN) and Topiramate (TPM) were weighed and dissolved in distilled water and 0.5% methylcellulose, respectively. Telmisartan (MICARDIS®) was purchased from Boehringer Ingelheim GmbH (Germany) and suspended in milli-Q water. Vehicle, PHEN and TPM were orally administered in a volume of 5 mL/kg. Telmisartan was orally administered in a volume of 10 mL/kg. PHEN was administered at a dose of 15 mg/kg once daily. TPM was administered at a dose of 100 mg/kg once daily. Telmisartan was administered at a dose of 5 mg/kg once daily.
Total RNA was extracted from liver samples using RNAiso (Takara Bio, Japan) and SV total RNA isolation kit (Promega, USA) according to the manufacturer's instructions. One/1 g of RNA was reverse-transcribed using a reaction mixture containing 4.4 mM MgCb (F. Hoffmann-La Roche, Switzerland), 40 U RNase inhibitor (Toyobo, Japan), 0.5 mM dNTP (Promega), 6.28 µM random hexamer (Promega), 5× first strand buffer (Promega), 10 mM dithiothreitol (Invitrogen, USA) and 200 U MMLV-RT (Invitrogen) in a final volume of 20 IIL. The reaction was carried out for 1 hour at 37° C., followed by 5 minutes at 99° C. Real-time PCR was performed using real-time PCR DICE and SYBR premix Tag (Takara Bio). To calculate the relative mRNA expression level, the expression of each gene was normalized to that of reference gene 36B4 (gene symbol: RplpO). To express data as fold-change relative to the Vehicle-control group, the data were standardized so that average values of the Vehicle group become 1.0.
(§3) The three treatment groups were as follows: Group 1: Vehicle: 10 NASH mice were orally administered vehicle [distilled water and 0.5% methylcellulose in a volume of 5 mL./kg, respectively] once daily from 5 to 11 weeks of age. Group 2: PHEN/WM. 10 NASH mice were orally administered distilled water supplemented with PHEN at a dose of 15 mg/kg, and 0.5% methylcellulose supplemented with TPM at a dose of 100 mg/kg once daily from 5 to 11 weeks of age. Group 3: Telmisartan. 10 NASH mice were orally administered pure water supplemented with Telmisartan at a dose of 5 mg/kg once daily from 5 to 11 weeks of age.
The values in Table 7 were calculated by dividing Target by 36B4 for each animal. An average was calculated in the vehicle group. The initial calculations of Target/36B4 was divided by the vehicle average so the vehicle average becomes 1.0. This second Target/36B4 represents a fold-change of Target gene relative to the vehicle average.

[2] = test system: STAM model mice (NASH); experiment: STAM model mice: blood biochemistry and liver triglyceride content; conditions: day of sacrifice, mean ± SD
Description: as §1
as §2, with “TPM was administered at a dose of 100 mg/kg once daily. Telmisartan was administered at a dose of 5 mg/kg once daily.” left out
Measurement of blood biochemistry. Non-fasting blood glucose was measured in whole blood using LIFE CHECK (EIDrA, Japan). […] The plasma ALT (alanine aminotransferase) and AST (aspartate aminotransferase) levels were measured by FUJI DRI CHEM 7000 (FujiFilm, Japan) Measurement of liver triglyceride content Liver total lipid-extracts were obtained by Folch's method (Folch J. el al., J. Bioi. Chern. 1957; 226: 497). […] Liver triglyceride levels were measured by Triglyceride E-test (Wako Pure Chemical Industries, Japan). […]

[3] = test system: STAM model mice (NASH); experiment: STAM model mice: viability, body weight, food consumption, liver weight
Description: as §1, §2
C57BL16 mice (15-day-pregnant female) were obtained from Japan SLC (Japan) and were housed in accordance with the Japanese Pharmacological Society Guidelines for Animal Use. The animals were maintained in a SPF facility under controlled conditions of temperature (23±2° C.), humidity (45±10%), lighting (12-hour artificial light and dark cycles; light from 8:00 to 20:00) and air exchange. A high pressure was maintained in the experimental room to prevent contamination of the facility. The animals were housed in TPX cages (CLEA Japan) with a maximum of 4 mice per cage. Sterilized Paper-Clean (Japan SLC) was used for bedding and replaced once a week.
Sterilized solid HFD was provided ad libitum, being placed in a metal lid on the top of the cage. Pure water was provided ad libitum from a water bottle equipped with a rubber stopper and a sipper tube. Water bottles were replaced once a week, cleaned and sterilized in an autoclave and reused. Mice were identified by numbers engraved on earrings. Each cage was labeled with a specific identification code.
as §3, with “10 NASH mice were orally administered pure water supplemented with Telmisartan at a dose of 5 mg/kg once daily from 5 to 11 weeks of age.” left out
The viability, clinical signs and behavior were monitored daily. […]
The body weight of each mouse was recorded daily and food consumption was recorded 3 times weekly during the treatment period. […]

[4] = test system: STAM model mice (NASH); experiment: STAM model mice: liver histopathology (HE/NAS, Sirius red, Oil red, F4/80)
Description: as §1, §2
Histopathology analysis. For HE staining, sections were cut from paraffin blocks of liver tissue prefixed in Bouin's solution and stained with Lillie-Mayers Hematoxylin (Muto Pure Chemicals, japan) and eosin solution (Wako Pure Chemical industries). NAS was calculated according to the criteria of Kleiner (Kleiner D E. et al., Hepatology, 2005; 41: 1313). To visualize collagen deposition, Bouin's fixed liver sections were stained using picro-Sirius red solution (Waldeck, Gelman)). To visualize macro- and microvesicular fat, sections were cut from frozen liver tissues embedded in Tissue-Tek O.C.T. compound (Sakura Finetek Japan, Japan), and stained with Oil Red 0 (SigmaAldrich). For immunohistochemistry, sections were cut from frozen liver tissues embedded in Tissue-Tek O.C.T. compound and fixed in acetone. Endogenous peroxidase activity was blocked using 0.03% H2O2 for 5 minutes, followed by incubation with Block Ace (Dainippon Sumitomo Pharma, Japan) for 10 minutes. The sections were incubated with a 200-fold dilution of anti-F4/80 antibody (BMA Biomedicals, Switzerland) 1 hour at room temperature. After incubation with secondary antibody (HRP-Goat anti-rat antibody, Invitrogen, USA), enzyme-substrate reactions were performed using 3, 3′-diaminobenzidine/H202 solution (Nichirei, Japan). For quantitative analyses of fibrosis, inflammation and fat deposition areas, bright field images of Sirius red-stained, F4/80-immunostained and oil red-stained sections were captured around the central vein using a digital camera (DFC280; Leica, Germany) at 200-fold magnification, and the positive areas in 5 fields/section were measured using ImageJ software (National Institute of Health, USA).
as §3, with “10 NASH mice were orally administered pure water supplemented with Telmisartan at a dose of 5 mg/kg once daily from 5 to 11 weeks of age.” left out

[5] = day of sacrifice, mean ± SD, PHEN 15 + TPM 100 mg/kg (n=6), Telmisartan 5 mg/kg (n=8)

What does the source list for `CCCc1nc2c(C)cc(-c3nc4ccccc4n3C)cc2n1Cc1ccc(-c2ccccc2C(=O)O)cc1` [Telmisartan]?
Alpha-SMA/36B4 mRNA expression, fold change relative to Vehicle group [1]: 0.54 and 0.54 ± 0.40; Collagen Type 1/36B4 mRNA expression, fold change relative to Vehicle group [1]: 0.80 and 0.80 ± 0.11; MCP-1/36B4 mRNA expression, fold change relative to Vehicle group [1]: 0.44 and 0.44 ± 0.23; MMP-9/36B4 mRNA expression, fold change relative to Vehicle group [1]: 1.21 and 1.21 ± 0.36; TIMP-1/36B4 mRNA expression, fold change relative to Vehicle group [1]: 0.66 and 0.66 ± 0.46; TNF-α/36B4 mRNA expression, fold change relative to Vehicle group [1]: 0.75 and 0.75 ± 0.17; Plasma ALT [2]: 39 U/L and 39 ± 34 U/L; Plasma AST [2]: 229 U/L and 229 ± 176 U/L; Whole blood glucose ([2]; non-fasting): 768 mg/dL and 768 ± 199 mg/dL; Mean body weight reduced compared to the Vehicle group ([3]; day of sacrifice): 11.4%; Liver-to-body weight ratio ([3]; day of sacrifice, mean ± SD): 6.2 ± 1.1%; Body weight [3, 5]: 18.7 g and 18.7 ± 1.7 g; Liver weight [3, 5]: 1156 ± 210 mg; Mice found dead before reaching week 11 ([3]; treatment period 5 to 11 weeks of age, oral once daily, PHEN 15 mg/kg + TPM 100 mg/kg, Telmisartan 5 mg/kg): Two out of 10; Fibrosis area (Sirius-red) ([4]; mean ± SD): 0.81% and 0.81 ± 0.39%; Inflammation area (F4/80) ([4]; mean ± SD): 1.48 ± 0.76%; Number of mice with Steatosis score 0 ([4]; score 0 = <5%): 2; Number of mice with Lobular Inflammation score 0 ([4]; score 0 = No foci): 2; Number of mice with Steatosis score 1 ([4]; score 1 = 5-33%): 6; Number of mice with Lobular Inflammation score 1 ([4]; score 1 = <2 foci/200x): 2; Number of mice with Hepatocyte Ballooning score 1 ([4]; score 1 = Few balloon cells): 4; Number of mice with Lobular Inflammation score 2 ([4]; score 2 = 2-4 foci/200x): 4; Number of mice with Hepatocyte Ballooning score 2 ([4]; score 2 = Many cells/prominent ballooning): 4
